Measured values reported in patent US4419508A, “20-Dihydro-20-deoxy-23-demycinosyltylosin and process for its production” (Eli Lilly and Company, priority 1981, dated 1983).
Converted amounts (≈) assume the structure as drawn. “Also recorded” adds a separate entry of the source. Where two headings read alike, the source gives them in different places.

How the values were obtained:
[1] = system: Staphylococcus aureus NRRL B313; format: cell-based; details: NRRLB313
[2] = system: Staphylococcus aureus V41; format: cell-based
[3] = system: Staphylococcus aureus X400; format: cell-based
[4] = system: Staphylococcus epidermidis EPI1; format: cell-based
[5] = system: Staphylococcus epidermidis EPI2; format: cell-based; details: free base, agar dilution
[6] = system: Streptococcus pyogenes C203; format: cell-based
[7] = system: Streptococcus pneumoniae Park 1; format: cell-based
[8] = system: Streptococcus faecium ATCC 9790; format: cell-based; details: Enterococcus faecium, ATCC9790
[9] = system: Streptococcus sp. group D 9960; format: cell-based
[10] = system: Haemophilus influenzae C.L.; format: cell-based
[11] = system: Haemophilus influenzae 76; format: cell-based
[12] = system: Escherichia coli EC14; format: cell-based; details: free base, agar dilution
From the text: (§1) Table 3 summarizes the minimal inhibitory concentrations (MIC), as measured by standard agar-dilution assays, at which DH-DO-DMT and DH-DO-OMT (as free bases) inhibit certain bacteria.

[13] = system: Escherichia coli N10; format: cell-based; details: free base, agar dilution
From the text: as §1

[14] = system: Klebsiella pneumoniae KAE; format: cell-based; details: free base, agar dilution
From the text: as §1

[15] = system: Shigella sonnei N9; format: cell-based; details: free base, agar dilution
From the text: as §1

[16] = system: Escherichia coli TEM; format: cell-based
[17] = system: Klebsiella pneumoniae X26; format: cell-based
[18] = Solubility; format: physicochemical; details: for solubility in polar organic solvents: free bases, acetone, methanol, ethanol, chloroform, dimethylformamide, dimethyl sulfoxide; for solubility in water: free bases (rows) or acid addition salts (sets)
[19] = system: pathogenic bacteria, especially gram-positive bacteria and Mycoplasma species; experiment: Antibacterial activity (in words); format: cell-based; details: qualitative statement
From the text: as §1

[20] = system: Clostridium difficile 2994; experiment: MIC against anaerobic bacteria, standard agar-dilution assay; format: cell-based; details: Clostridioides difficile, end point after 24 hours
[21] = system: Clostridium perfringens 81; experiment: microbe, parasite or virus in culture; format: cell-based; details: Clostridium perfringens, 81, 24 h
[22] = system: Bacteroides thetaiotaomicron 1438; experiment: MIC against anaerobic bacteria, standard agar-dilution assay; format: cell-based; details: Bacteroides thetaiotaomicron, 1438, 24 h
Protocol: (§2) Table 4 summarizes the MIC's at which DH-DO-OMT inhibits these bacteria. The MIC's were determined using a standard agar-dilution assay and reading the end point after 24 hours.

[23] = system: Clostridium septicum 1128; experiment: as above; format: cell-based; details: end point after 24 hours
Protocol: as §2

[24] = system: Peptococcus prevoti 1281; experiment: as above; format: cell-based; details: end point after 24 hours
Protocol: as §2

[25] = system: Eubacterium aerofaciens 1235; experiment: as above; format: cell-based; details: Collinsella aerofaciens, end point after 24 hours
[26] = system: Peptococcus asaccharolyticus 1302; experiment: as above; format: cell-based; details: Peptoniphilus asaccharolyticus, end point after 24 hours
[27] = system: Peptostreptococcus anaerobius 1428; experiment: as above; format: cell-based; details: end point after 24 hours
[28] = system: Peptostreptococcus intermedius 1264; experiment: as above; format: cell-based; details: end point after 24 hours
[29] = system: Propionibacterium acnes 79; experiment: as above; format: cell-based; details: Cutibacterium acnes, end point after 24 hours
[30] = system: Bacteroides fragilis 111; experiment: as above; format: cell-based; details: end point after 24 hours
[31] = system: Bacteroides fragilis 1877; experiment: as above; format: cell-based; details: end point after 24 hours
[32] = system: Bacteroides fragilis 1936B; experiment: as above; format: cell-based; details: end point after 24 hours
[33] = system: Bacteroides melaninogenicus 1856/28; experiment: as above; format: cell-based; details: end point after 24 hours
[34] = system: Bacteroides melaninogenicus 2736; experiment: as above; format: cell-based; details: end point after 24 hours
[35] = system: Bacteroides vulgatis 1211; experiment: as above; format: cell-based; details: end point after 24 hours
[36] = system: Bacteroides corrodens 1874; experiment: as above; format: cell-based; details: Eikenella corrodens, end point after 24 hours
[37] = system: Fusobacterium symbiosum 1470; experiment: as above; format: cell-based; details: end point after 24 hours
[38] = system: Fusobacterium necrophorum 6054A; experiment: as above; format: cell-based; details: end point after 24 hours
[39] = system: Chlamydia trachomatis; experiment: MIC, Chlamydia trachomatis grown in cell culture; format: cell-based
From the text: (§3) In addition, DH-DO-OMT inhibits Mycoplasma species.

[40] = system: M. gallisepticum; experiment: MIC against Mycoplasma species; format: cell-based; details: Mycoplasmoides gallisepticum
From the text: as §3

[41] = system: M. synoviae; experiment: MIC against Mycoplasma species; format: cell-based; details: Mycoplasmopsis synoviae
From the text: as §3

[42] = system: Staphylococcus aureus 3055; experiment: In vivo activity against experimental infections in mice; details: two doses
[43] = system: Streptococcus pyogenes C203; experiment: as above; details: free base, oral, two doses, bacterial challenge 64 LD50
[44] = system: Streptococcus pneumoniae Park I; experiment: as above; details: po

For `CCC1CC(C)C(=O)C=CC(C)=CC(CO)C(CC)OC(=O)CC(O)C(C)C1OC1OC(C)C(OC2CC(C)(O)C(O)C(C)O2)C(N(C)C)C1O` (stereo not drawn) [DH-DO-DMT, 20-dihydro-20-deoxy-23-demycinosyltylosin], the MIC ([1]; Staphylococcus aureus) was 128 µg/mL (≈ 176 µM), the MIC ([2]; Staphylococcus aureus, V41) was 128 µg/mL (≈ 176 µM) and the MIC ([3]; Staphylococcus aureus, X400) was > 128 µg/mL. For the same molecule, the MIC [4] was 128 µg/mL (≈ 176 µM), the MIC [5] was 64 µg/mL (≈ 87.9 µM) and the MIC ([6]; Streptococcus pyogenes, C203) was > 128 µg/mL. For the same molecule, the MIC ([7]; PARK1) was > 128 µg/mL, the MIC [8] was > 128 µg/mL and the MIC ([9]; Streptococcus) was > 128 µg/mL. The MIC ([10]; Haemophilus influenzae) was > 128 µg/mL, the MIC ([11]; Haemophilus influenzae, 76) was > 128 µg/mL and the MIC [12] was > 128 µg/mL. For the same molecule, the MIC [13] was > 128 µg/mL, the MIC [14] was > 128 µg/mL and the MIC [15] was > 128 µg/mL. The MIC ([16]; Escherichia coli) was > 128 µg/mL, the MIC ([17]; Klebsiella pneumoniae, X26) was > 128 µg/mL and the “solubility in polar organic solvents” value [18] was “soluble in water and in most polar organic solvents”. The solubility in water [18] was “soluble in water” and the antibacterial activity [19] was “inhibit the growth of pathogenic bacteria, especially gram-positive bacteria and Mycoplasma species; also recorded: some antibacterial activity; also recorded: active against gram-positive microorganisms and Mycoplasma species”.

`CCC1CC(C)C(=O)C=CC(C)=CC(CO)C(CC)OC(=O)CC(O)C(C)C1OC1OC(C)C(O)C(N(C)C)C1O` (stereo not drawn) [DH-DO-OMT, 20-Dihydro-20-deoxy-5-O-mycaminosyltylonolide] gave an MIC ([1]; free base, agar dilution, Staphylococcus aureus NRRL B313, read-out: MIC) of 4 µg/mL (≈ 6.85 µM), an MIC ([2]; free base, agar dilution, Staphylococcus aureus V41, read-out: MIC) of 4 µg/mL (≈ 6.85 µM) and an MIC ([3]; free base, agar dilution, Staphylococcus aureus X400, read-out: MIC) of 8 µg/mL (≈ 13.7 µM). It also gave an MIC ([4]; read-out: MIC) of 8 µg/mL (≈ 13.7 µM), an MIC [5] of 8 µg/mL (≈ 13.7 µM) and an MIC ([6]; free base, agar dilution, Streptococcus pyogenes C203, read-out: MIC) of 8 µg/mL (≈ 13.7 µM). It also gave an MIC ([7]; PARK1, read-out: MIC) of 8 µg/mL (≈ 13.7 µM), an MIC ([8]; free base, agar dilution, Streptococcus faecium ATCC 9790, read-out: MIC) of 16 µg/mL (≈ 27.4 µM) and an MIC ([9]; free base, agar dilution, Streptococcus sp. group D 9960, read-out: MIC) of 16 µg/mL (≈ 27.4 µM). For the same molecule, the MIC ([10]; free base, agar dilution, Haemophilus influenzae C.L., read-out: MIC) was 16 µg/mL (≈ 27.4 µM), the MIC ([11]; free base, agar dilution, Haemophilus influenzae 76, read-out: MIC) was 16 µg/mL (≈ 27.4 µM) and the MIC [12] was > 128 µg/mL. For the same molecule, the MIC [13] was > 128 µg/mL, the MIC [14] was > 128 µg/mL and the MIC [15] was > 128 µg/mL. The MIC ([16]; free base, agar dilution, Escherichia coli TEM, read-out: MIC) was 64 µg/mL (≈ 110 µM), the MIC ([17]; free base, agar dilution, Klebsiella pneumoniae X26, read-out: MIC) was 4 µg/mL (≈ 6.85 µM) and the MIC [20] was 2 µg/mL (≈ 3.43 µM). The MIC [21] was 2 µg/mL (≈ 3.43 µM), the MIC [22] was > 8 µg/mL and the MIC [23] was 2 µg/mL (≈ 3.43 µM). The MIC [24] was > 8 µg/mL, the MIC [25] was 2 µg/mL (≈ 3.43 µM) and the MIC [26] was > 8 µg/mL. The MIC [27] was > 8 µg/mL, the MIC [28] was > 8 µg/mL and the MIC [29] was 2 µg/mL (≈ 3.43 µM). For the same molecule, the MIC [30] was > 8 µg/mL, the MIC [31] was > 8 µg/mL and the MIC [32] was > 8 µg/mL. For the same molecule, the MIC [33] was > 8 µg/mL, the MIC [34] was > 8 µg/mL and the MIC [35] was > 8 µg/mL. The MIC [36] was > 8 µg/mL, the MIC [37] was > 8 µg/mL and the MIC [38] was 8 µg/mL (≈ 13.7 µM). For the same molecule, the MIC [39] was 0.5 µg/mL (≈ 0.857 µM), the MIC [40] was 12.5 µg/mL (≈ 21.4 µM) and the MIC [41] was 12.5 µg/mL (≈ 21.4 µM). The ED50 ([42]; Staphylococcus aureus, 3055, free base, oral, bacterial challenge 100 LD50) was 44 mg/kg, the ED50 ([42]; Staphylococcus aureus, 3055, sc, free base, subcutaneous, bacterial challenge 221 LD50) was 37.3 mg/kg and the ED50 [43] was 75.3 mg/kg. The ED50 [44] was 224 mg/kg, the “solubility in polar organic solvents” value [18] was “soluble in water and in most polar organic solvents” and the solubility in water [18] was “soluble in water”. For the same molecule, the antibacterial activity [19] was “inhibit the growth of pathogenic bacteria, especially gram-positive bacteria and Mycoplasma species; also recorded: active against gram-positive microorganisms and Mycoplasma species”.
